Assay results taken from patent US20050245399A1, “Pyrazole derivatives as herbicidal compositions containing them” (ISHIHARA SANGYO KAISHA, LTD., priority 2004, published 2005).

Tests used:
Format in all cases: in vivo
[1] = test system: barnyardgrass (Echinochloa crus-galli L.): ECHCG; test: Test Example 1 pre-emergence herbicidal activity, ECHCG; details: Rate 63 g a.i./ha, visually observed 20th to 23rd day after application
In short: (§1)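 Scoring was visual growth control (0 = untreated, 100 = complete kill) on days 20–23 post-application. Treatment came as a pre-emergence spray one day after sowing in upland soil, using wettable powder or emulsifiable concentrate diluted in 500 L/ha water at predetermined active-ingredient amounts.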

[2] = test system: crabgrass (Digitaria sanguinalis L.): DIGSA; test: Test Example 1 pre-emergence herbicidal activity, DIGSA; details: Rate 63 g a.i./ha, visually observed 20th to 23rd day after application
In short: as §1

[3] = test system: green foxtail (Setaria viridis L.): SETVI; test: Test Example 1 pre-emergence herbicidal activity, SETVI; details: Rate 63 g a.i./ha, visually observed 20th to 23rd day after application
In short: as §1

[4] = test system: prickly sida (Sida spinosa L.): SEDSP; test: Test Example 1 pre-emergence herbicidal activity, SIDSP; details: Rate 63 g a.i./ha, visually observed 20th to 23rd day after application
In short: as §1

[5] = test system: velvetleaf (Abutilon theophrasti): ABUTH; test: Test Example 1 pre-emergence herbicidal activity, ABUTH; details: Rate 63 g a.i./ha, visually observed 20th to 23rd day after application
In short: as §1

[6] = test system: rice (Oryza sativa L.): ORYSA; test: Test Example 1 pre-emergence herbicidal activity, ORYSA; details: Rate 63 g a.i./ha, visually observed 20th to 23rd day after application
In short: as §1

[7] = test system: wheat (Triticum aestivum L.): TRZAX; test: Test Example 1 pre-emergence herbicidal activity, TRZAX; details: Rate 63 g a.i./ha, visually observed 20th to 23rd day after application
In short: as §1

[8] = test system: corn (Zea mays L.): ZEAMX; test: Test Example 1 pre-emergence herbicidal activity, ZEAMX; details: Rate 63 g a.i./ha, visually observed 20th to 23rd day after application
In short: as §1

[9] = test system: soybean (Glycine max Merr.): GLXMA; test: Test Example 1 pre-emergence herbicidal activity, GLXMA; details: Rate 63 g a.i./ha, visually observed 20th to 23rd day after application
In short: as §1

[10] = test system: barnyardgrass (Echinochloa crus-galli L.), ECHCG; test: Test Example 2 post-emergence (foliage treatment) herbicidal activity, ECHCG; details: 63 g a.i./ha
In short: (§2)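 Visual rating of growth control, from 0 (untreated-like) to 100 (complete kill), was done 20–23 days after post-emergence spraying. Wettable powder or emulsifiable concentrate was diluted to 500 L/ha with 0.1% (v/v) spreader. Leaf stages at application were 1.1-2.1 (ECHCG), 1.0-2.0 (DIGSA), 0.1-1.5 (AMARE) and 1.0-2 (ORYSA).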

[11] = test system: crabgrass (Digitaria sanguinalis L.), DIGSA; test: Test Example 2 post-emergence (foliage treatment) herbicidal activity, DIGSA; details: 63 g a.i./ha
In short: as §2

[12] = test system: green foxtail (Setaria viridis L.), SETVI; test: Test Example 2 post-emergence (foliage treatment) herbicidal activity, SETVI; details: 63 g a.i./ha
In short: (§3)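 Each species was evaluated for growth suppression by eye, 0% matching untreated and 100% meaning death, some 20 to 23 days after a single post-emergence foliar treatment applied in 500 L/ha of water carrying 0.1% (v/v) agricultural spreader.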

[13] = test system: prickly sida (Sida spinosa L.), SIDSP; test: Test Example 2 post-emergence (foliage treatment) herbicidal activity, SIDSP; details: 63 g a.i./ha
In short: as §3

[14] = test system: velvetleaf (Abutilon theophrasti), ABUTH; test: Test Example 2 post-emergence (foliage treatment) herbicidal activity, ABUTH; details: 63 g a.i./ha
In short: as §3

[15] = test system: rice (Oryza sativa L.), ORYSA; test: Test Example 2 post-emergence (foliage treatment) herbicidal activity, ORYSA; details: 63 g a.i./ha
In short: as §2

[16] = test system: wheat (Triticum aestivum L.), TRZAX; test: Test Example 2 post-emergence (foliage treatment) herbicidal activity, TRZAX; details: 63 g a.i./ha
In short: as §3

[17] = test system: corn (Zea mays L.), ZEAMX; test: Test Example 2 post-emergence (foliage treatment) herbicidal activity, ZEAMX; details: 63 g a.i./ha
In short: as §3

[18] = test system: soybean (Glycine max Merr.), GLXMA; test: Test Example 2 post-emergence (foliage treatment) herbicidal activity, GLXMA; details: 63 g a.i./ha
In short: as §3

[19] = test system: barnyardgrass (Echinochiloa oryzicola: ECHOR); test: Test Example 3 water application herbicidal activity (paddy), ECHOR; details: 63 g a.i./ha, water application under submerged condition at 0.5 leaf stage, visually observed 14th day after application; 0 = untreated control, 100 = complete kill
Excerpt: (§4) Paddy field soil was put into a 1/1,000,000 ha pot and seeds of barnyardgrass (Echinochiloa oryzicola: ECHOR) and japanese bulrush (Scirpus juncoides: SCPJO) were sown and slightly covered with soil. Then the pot was left to stand still in a greenhouse in a state where the depth of flooding water was from 0.5 to 1 cm, and one day later, tubers of japanese ribbon wapato (Sagittaria pygmaea: SA GPY) were planted. Thereafter, the depth of flooding water was maintained at a level of from 3 to 4 cm, and when barnyardgrass and japanese bulrush reached a 0.5 leaf stage, an aqueous diluted solution of a wettable powder or emulsifiable concentrate having the compound of the present invention formulated in accordance with a usual formulation method, was uniformly applied under submerged condition by a pipette so that the dose of the active ingredient would be at a predetermined level. On the other hand, paddy filed soil was put into a 1/1,000,000 ha pot and puddled and leveled, and the depth of flooding water was from 3 to 4 cm. One day later, rice (Oryza sativa L.: ORYSA) of 2 leaf stage was transplanted in a depth of 3 cm. On the 4th day after the transplantation, the compound of the present invention was applied in the same manner as described above. On the 14th day after the application of the herbicide, the growth of barnyardgrass, japanese burlush and japanese ribbon wapato was visually observed and on the 21st day after the application of the herbicide, the growth of rice was visually observed, and the herbicidal effects were evaluated by growth controlling degrees (%) ranging from 0 (equivalent to the untreated control) to 100 (complete kill), whereby the results shown in Table 6, were obtained. Compound Nos. in Table 6 correspond to Compound Nos. in Table 1 and 2 given hereinbefore.

[20] = test system: japanese bulrush (Scirpus juncoides: SCPJO); test: Test Example 3 water application herbicidal activity (paddy), SCPJO; details: 63 g a.i./ha, water application under submerged condition at 0.5 leaf stage, visually observed 14th day after application; 0 = untreated control, 100 = complete kill
Excerpt: as §4

[21] = test system: japanese ribbon wapato (Sagittaria pygmaea: SA GPY); test: Test Example 3 water application herbicidal activity (paddy), SAGPY; details: 63 g a.i./ha, water application under submerged condition, tubers planted, visually observed 14th day after application; 0 = untreated control, 100 = complete kill
Excerpt: as §4

[22] = test system: redroot pigweed (Amaranthus retroflexus L.): AMARE; test: Test Example 1 pre-emergence herbicidal activity, AMARE; details: Rate 63 g a.i./ha, visually observed 20th to 23rd day after application
In short: as §1

[23] = test system: redroot pigweed (Amaranthus retroflexus L.), AMARE; test: Test Example 2 post-emergence (foliage treatment) herbicidal activity, AMARE; details: 63 g a.i./ha
In short: as §2

Row | SMILES | Pre-emergence Herbicidal Activity ECHCG (growth controlling degree) [1] [%] | Pre-emergence Herbicidal Activity DIGSP (growth controlling degree) [2] [%] | Pre-emergence Herbicidal Activity SETVI (growth controlling degree) [3] [%] | Pre-emergence Herbicidal Activity SIDSP (growth controlling degree) [4] [%] | Pre-emergence Herbicidal Activity ABUTH (growth controlling degree) [5] [%] | Pre-emergence Herbicidal Activity ORYSA (growth controlling degree) [6] [%] | Pre-emergence Herbicidal Activity TRZAX (growth controlling degree) [7] [%] | Pre-emergence Herbicidal Activity ZEAMX (growth controlling degree) [8] [%] | Pre-emergence Herbicidal Activity GLXMA (growth controlling degree) [9] [%] | growth controlling degree, ECHCO [10] [%] | growth controlling degree, SIDSP [13] [%] | growth controlling degree, ABUTH [14] [%] | growth controlling degree, ORYSA [15] [%] | growth controlling degree, TRZAX [16] [%] | growth controlling degree, ZEAMX [17] [%] | growth controlling degree, GLXMA [18] [%] | growth controlling degrees (%) ECHOR [19] [%] | growth controlling degrees (%) SCPJO [20] [%] | growth controlling degrees (%) SAGPY [21] [%] | Pre-emergence Herbicidal Activity AMARE (growth controlling degree) [22] [%] | further results
1 | COc1c(Cl)cc(F)c(-c2nn(C)c(OC(F)F)c2Cl)c1NC(=O)OCCN(C)C [Compound 1-66] | 0 | 20 | 10 | 20 | 20 | 0 | 0 | 0 | 0 | 20 | 100 | 100 | 50 | 20 | 40 | 60 | 90 | 30 | 0 | – | growth controlling degree, DIGSP [11]: 40%; growth controlling degree, SETVI [12]: 60%
2 | COc1c(Cl)cc(F)c(-c2nn(C)c(OC(F)F)c2Cl)c1NC(=O)Oc1ccccc1 [Compound 1-67] | 50 | 100 | 100 | 80 | 70 | 40 | 10 | 0 | 0 | 70 | 100 | 100 | 60 | 30 | 30 | 70 | 100 | 100 | 100 | 100 | growth controlling degree, DIGSP [11]: 70%; growth controlling degree, AMARE [23]: 100%
3 | COc1c(Cl)cc(F)c(-c2nn(C)c(OC(F)F)c2Cl)c1NC(=O)OCCCl [Compound 1-68] | 95 | 100 | 100 | 100 | 100 | 40 | 40 | 10 | 0 | 70 | 100 | 100 | 60 | 20 | 50 | 60 | 100 | 95 | 80 | 100 | growth controlling degree, SETVI [12]: 100%
4 | COc1c(Cl)cc(F)c(-c2nn(C)c(OC(F)F)c2Cl)c1NC(=O)OCc1ccccc1 [Compound 1-71] | 98 | 100 | 100 | 100 | 100 | 60 | 30 | 30 | 10 | 100 | 100 | 100 | 80 | 60 | 70 | 80 | 100 | 70 | 100 | 100 | –
